Measured values taken from US20030022812A1, “Treating pain by targeting hyperpolarization-activated, cyclic nucleotide-gated channels” (priority 2001, published 2003).
Entries after “also recorded” stand apart in the source; their conditions may differ.

How the values were obtained:
[1] = system: rat complete Freund's adjuvant (CFA) model of hindpaw inflammation; experiment: Thermal hyperalgesia (modified Hargreaves apparatus) in rat CFA model of hindpaw inflammation; assay type: in vivo; conditions: 10 mg/kg i.p.
Method: (§1) However, blockade of HCN channels with ZD7288 at 10 mg/kg, i.p., had no effect on thermal hyperalgesia (measured using a modified Hargreaves apparatus) in two different models of inflammatory pain: the rat carrageenan model of hindpaw inflammation, and the rat complete Freund's adjuvant (CFA) model of hindpaw inflammation. As shown supra, HCN blockade also had little effect on acute thermally evoked pain in the hot plate test.

[2] = system: rat carrageenan model of hindpaw inflammation; experiment: Thermal hyperalgesia (modified Hargreaves apparatus) in rat carrageenan model of hindpaw inflammation; assay type: in vivo; conditions: 10 mg/kg i.p.
Method: as §1

normal rats = experiment: 55° C. hot plate test of acute thermally-evoked pain; assay type: in vivo, rat; conditions: 10 mg/kg i.p.
Method: A cutoff of 20 seconds of thermal surface exposure was employed to prevent tissue damage. Drug administration: Normal rats were administered ZD7288, 10 mg/kg, or an equivalent volume of saline, i.p. at time 0. Behavioral assessments were performed at 45, 60 and 75 minutes after drug administration.

[3] = system: rat mild thermal injury model; experiment: Spontaneous pain behaviors in rat mild thermal injury (first-degree burn) model; assay type: in vivo; conditions: 30 and 60 min after i.p. administration
[4] = system: spontaneous firing of Aβ and Aδ neurons; experiment: In vitro single fiber recording of spontaneous discharges in excised dorsal root/DRG/spinal nerve preparation from SNL rats; assay type: cell-based, rat
CFA-injected rats = experiment: Tactile allodynia (von Frey) in complete Freund's adjuvant (CFA) paw model of inflammatory pain; assay type: in vivo, rat; conditions: i.p.; ZD7288 10 mg/kg, ibuprofen 30 mg/kg, morphine 3 mg/kg, gabapentin 100 mg/kg
SNL rats = experiment: Tactile allodynia (von Frey) in SNL (Chung) neuropathic pain model; assay type: in vivo, rat
Method: Preparation of SNL (spinal nerve ligation) model: All studies were conducted in keeping with the guidelines of the Institutional Animal Care Committees of the University of California, San Diego and RWJPRI. Male Harlan Sprague-Dawley rats, 100-150 g, were housed in cages with solid bottoms and sawdust bedding, with a 12/12 h reversed light cycle (lights on 2100-900), and allowed free access to food pellets and water. Animals were housed in groups of 2 after surgical interventions. A surgical neuropathy was created as follows, to create a model commonly referred to as the SNL, or spinal nerve ligation model, also commonly referred to as the Chung model. Under isoflurane/oxygen anesthesia, a dorsal midline incision was made from approximately L3-S2. Using a mixture of sharp and blunt dissection, the left L6/S1 posterior interarticular process was exposed and resected to permit adequate visualization of the L6 transverse process, which was gently removed. Careful teasing of the underlying fascia exposed the left L4 and L5 spinal nerves distal to their emergence from the intervertebral foramina. The nerves were gently separated, and the L5 and in some cases either the L4 (for in vitro electrophysiology recordings) or the L6 nerve firmly ligated with 6-0 silk suture material. The wound was then inspected for hemostasis and closed in two layers. Animals with thresholds greater than 4 g were considered unsuccessful preparations(Chaplan et al., (1994) Journal of Neuroscience Methods 53: 55-63).
Behavioral assessment: Behavioral signs of allodynia were documented as follows. Briefly, rats were transferred to a testing cage with a wire mesh bottom and allowed to acclimate for 10-15 minutes. […] Lifting of the paw was recorded as a positive response and the next lightest filament chosen for the next measurement. […]

Structure (SMILES): CCN(c1ccccc1)c1cc(=NC)n(C)c(C)n1.Cl [ZD7288]
- effect on thermal hyperalgesia [1]: no effect
- effect on thermal hyperalgesia [2]: no effect
- effect on acute thermally-evoked pain (normal rats): minimal effect
- hot plate latency, difference versus saline (normal rats; 45 or 60 min): No statistically significant difference
- hot plate latency, difference versus saline (normal rats; 75 min): approximately 15%
- suppression of spontaneous pain behaviors [3]: near complete suppression
- suppression of spontaneous (ectopic) discharges of Aβ fibers ([4]; 100 μM bath application for 5 min): complete suppression; also recorded: completely suppressed
- effect on spontaneous firing of Aδ fiber ([4]; 100 micromolar): attenuation of firing
- time to complete suppression of ectopic firing, Aβ fiber ([4]; 100 micromolar): 3 to 4 min
- conduction blockade of evoked action potentials ([4]; after application of ZD7288): no conduction blockade
- suppression of CFA-induced tactile allodynia (CFA-injected rats): suppressed allodynia; also recorded: markedly suppressed
- efficacy of allodynia suppression (% MPE) (SNL rats; i.p.): 75.7+/−15.4%
- suppression of tactile allodynia (SNL rats; i.p. 1, 3, 10 mg/kg): blocked in a dose dependent manner; also recorded: suppressed the tactile allodynia
- untoward behavioral effects / motor function (SNL rats; i.p., up to 10 mg/kg): No untoward behavioral effects; also recorded: without overt adverse effects on behavior
